The values below come from ChEMBL document CHEMBL1201862, “PubChem BioAssay data set” (2004).

Among the test systems are HL-60; M14; SF-539; SF-295; ACHN; COLO 205; HCC 2998; A549; MDA-MB-435; NCI-H23; HT-29; HCT-15; PC-3; NCI/ADR-RES; SK-MEL-5; EKVX; SW-620; K562; RXF 393.
What all share (experiment): NCI anticancer screen, dose series, 48 h

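Method: 48-hour compound exposure of cells in 96-well plates, five concentrations, linear interpolation of endpoints. GI50 = concentration required for 50% inhibition of growth.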 Active and inactive are the calls of the source. Cut-off read from the data, not from the text of the source: active = GI50 up to about 1.1 µM and inactive = higher.

With `COc1cc(Br)cc2c1O[C@H]1C(=O)CC3CC21CCN3C` (stereo partly drawn), the GI50 was 16.4 µM (inactive) in the assay with HL-60; > 100 µM (inactive) with M14; > 100 µM (inactive) with SF-539; > 100 µM (inactive) in the assay on SF-295; 57.1 µM (inactive) in the assay with ACHN; 43.3 µM (inactive) in the assay on COLO 205. Moreover, the GI50 is 34.1 µM (inactive) in the assay on HCC 2998; 94.4 µM (inactive) in the assay on A549; 52.2 µM (inactive) in the assay with MDA-MB-435; 24.3 µM (inactive) in the assay with NCI-H23; 42.2 µM (inactive) in the assay with HT-29; 54.1 µM with HCT-15. The GI50 in the assay with PC-3 is 64 µM (inactive); with NCI/ADR-RES, 67.5 µM (inactive); with SK-MEL-5 it was > 100 µM (inactive); in the assay with EKVX, 61 µM (inactive); in the assay on SW-620, 30.5 µM (inactive); in the assay on K562 it was 19.8 µM (inactive).

Turning to `O=c1[nH]nc(Cc2ccccc2)n1-n1cnnc1`, the GI50 with M14, in the assay on RXF 393, with SF-539, with SF-295, with ACHN and with COLO 205 was > 100 µM (inactive) in each case. The GI50 in the assay on HCC 2998 is > 100 µM (inactive); in the assay on A549, > 100 µM (inactive); in the assay on MDA-MB-435, > 100 µM (inactive); in the assay on NCI-H23, > 100 µM (inactive); with HT-29 it was > 100 µM (inactive); in the assay with HCT-15, above 100 µM. Moreover, the GI50 in the assay with PC-3, in the assay on NCI/ADR-RES, with SK-MEL-5, in the assay on EKVX, in the assay on SW-620 and in the assay on K562 was > 100 µM (inactive) each time.

Consider `CO[C@]12CC(=O)C3(C(C[C@H]4CC5CCC6=CC(=O)CC[C@]6(OC(C)=O)C5C[C@@]43C)C1)C1C[C@H]3[C@@H]4CCC5=CC(=O)CC[C@]5(OC(C)=O)[C@H]4CC[C@]3(C)C12` (stereo partly drawn), for which the GI50 was > 100 µM (inactive) in the assay on HL-60; > 100 µM (inactive) in the assay with M14; > 100 µM (inactive) in the assay with SF-539; > 100 µM (inactive) in the assay on SF-295; > 100 µM (inactive) in the assay on ACHN; 19.7 µM (inactive) in the assay with COLO 205. Moreover, the GI50 is > 100 µM (inactive) in the assay on HCC 2998; > 100 µM (inactive) with A549; > 100 µM (inactive) with MDA-MB-435; > 100 µM (inactive) with NCI-H23; > 100 µM (inactive) in the assay on HT-29; above 100 µM in the assay on HCT-15. Besides, the GI50 in the assay on PC-3 is > 100 µM (inactive); with NCI/ADR-RES, > 100 µM (inactive); with SK-MEL-5 it was 39.4 µM (inactive); in the assay on EKVX it was > 100 µM (inactive); in the assay with SW-620 it was > 100 µM (inactive); in the assay with K562, > 100 µM (inactive).

Consider `CC1=CCC[C@H]2[C@](C)(CC3=CC(=O)C(SCC(C)C)=CC3=O)[C@@H](C)CC[C@]12C`, for which the GI50 is 18.2 µM (inactive) in the assay with M14; 9.68 µM (inactive) in the assay with RXF 393; 18 µM (inactive) with SF-539; 16.1 µM (inactive) in the assay on SF-295; 15.6 µM (inactive) with ACHN; 13.2 µM (inactive) in the assay on COLO 205. For the same compound, the GI50 is 16.3 µM (inactive) with HCC 2998; 12.5 µM (inactive) with A549; 15.7 µM (inactive) in the assay on MDA-MB-435; 8.99 µM (inactive) in the assay on NCI-H23; 15.4 µM (inactive) in the assay with HT-29; 15.1 µM in the assay with HCT-15. Moreover, the GI50 in the assay with PC-3 is 15 µM (inactive); in the assay with NCI/ADR-RES it was 16 µM (inactive); with SK-MEL-5 it was 12.8 µM (inactive); in the assay with EKVX, 16.7 µM (inactive); in the assay on SW-620, 17.3 µM (inactive); in the assay on K562 it was 5.78 µM (inactive).

Consider `CCOC(=O)NC(=S)c1ccc(O)c2ccccc12`, for which the GI50 was 1.47 µM (inactive) with HL-60; 70.1 µM (inactive) in the assay with M14; 53.8 µM (inactive) in the assay with SF-539; 46.3 µM (inactive) in the assay on SF-295; 80.5 µM (inactive) in the assay on ACHN; > 100 µM (inactive) in the assay on COLO 205. Also, the GI50 is 91 µM (inactive) with HCC 2998; 44.9 µM (inactive) in the assay with A549; 40.7 µM (inactive) with MDA-MB-435; 55.5 µM (inactive) in the assay with NCI-H23; 66.1 µM (inactive) with HT-29; 36.6 µM with HCT-15. Moreover, the GI50 in the assay with PC-3 was > 100 µM (inactive); in the assay on NCI/ADR-RES, 25.8 µM (inactive); in the assay on SK-MEL-5, 42.8 µM (inactive); in the assay on EKVX, 27.9 µM (inactive); in the assay on SW-620, 51.6 µM (inactive); with K562, 42.1 µM (inactive).

`NCCCN1CCN(CCCNc2ccc3ncn4c5ccccc5c(=O)c2c34)CC1`: the GI50 in the assay with HL-60 is 0.861 µM (active); with M14, 2.79 µM (inactive); in the assay with SF-539 it was 1.42 µM (inactive); in the assay with SF-295, 3.71 µM (inactive); in the assay with ACHN, 1.49 µM (inactive); in the assay on COLO 205, 0.481 µM (active). Moreover, the GI50 was 0.789 µM (active) in the assay with HCC 2998; 1.95 µM (inactive) with A549; 1.46 µM (inactive) with MDA-MB-435; 2.51 µM (inactive) in the assay on NCI-H23; 1.13 µM (inactive) in the assay on HT-29; 4.4 µM in the assay with HCT-15. In addition, the GI50 is 1.69 µM (inactive) in the assay on PC-3; 13.7 µM (inactive) with NCI/ADR-RES; 0.791 µM (active) in the assay with SK-MEL-5; 2.85 µM (inactive) with EKVX; 1.32 µM (inactive) with SW-620; 1.09 µM (active) in the assay with K562.

On to `COc1ccc2nc3cccc([N+](=O)[O-])c3c(NCCN(C)C)c2c1`, for which the GI50 with M14 was 0.0927 µM (active); in the assay with RXF 393, 0.0851 µM (active); with SF-539, 0.147 µM (active); in the assay with SF-295 it was 0.233 µM (active); in the assay with ACHN it was 0.0585 µM (active); in the assay with COLO 205 it was 0.0284 µM (active). In addition, the GI50 in the assay on HCC 2998 is 0.0605 µM (active); in the assay with A549 it was 0.0515 µM (active); in the assay on MDA-MB-435, 0.0826 µM (active); in the assay with NCI-H23, 0.136 µM (active); in the assay with HT-29, 0.0573 µM (active); with HCT-15, 0.0716 µM. Moreover, the GI50 in the assay with PC-3 was 0.108 µM (active); in the assay with NCI/ADR-RES, 0.138 µM (active); in the assay with SK-MEL-5, 0.102 µM (active); with EKVX, 0.186 µM (active); in the assay on SW-620, 0.14 µM (active); in the assay with K562, 0.0292 µM (active).

For the compound `O=C(Cn1cc(-c2ccccc2)nn1)NC1CCCC1`, the GI50 in the assay with HL-60, in the assay on M14, with SF-539, with SF-295, in the assay with ACHN and in the assay on COLO 205 was > 100 µM (inactive) each time. The GI50 in the assay on HCC 2998 is > 100 µM (inactive); in the assay with A549, > 100 µM (inactive); in the assay with MDA-MB-435, > 100 µM (inactive); in the assay with NCI-H23 it was > 100 µM (inactive); in the assay with HT-29, > 100 µM (inactive); with HCT-15, above 100 µM. For the same compound, the GI50 with PC-3, in the assay on NCI/ADR-RES, with SK-MEL-5, in the assay on EKVX, with SW-620 and with K562 was > 100 µM (inactive) throughout.

For the compound `Cn1c(=O)c2c(ncn2CCNC(CO)C(O)c2ccc([N+](=O)[O-])cc2)n(C)c1=O` (stereo not drawn), the GI50 with HL-60, in the assay on M14, with SF-539, in the assay with SF-295, in the assay on ACHN and in the assay with COLO 205 was > 100 µM (inactive) in each case. Moreover, the GI50 with HCC 2998 was > 10 µM (inactive); in the assay on A549 it was > 100 µM (inactive); in the assay on MDA-MB-435 it was > 100 µM (inactive); in the assay with NCI-H23 it was > 100 µM (inactive); in the assay on HT-29, > 100 µM (inactive); in the assay with HCT-15, above 100 µM. The GI50 is > 100 µM (inactive) with PC-3; > 100 µM (inactive) with NCI/ADR-RES; > 100 µM (inactive) in the assay with SK-MEL-5; > 100 µM (inactive) in the assay on EKVX; > 10 µM (inactive) in the assay with SW-620; > 100 µM (inactive) with K562.

With `COc1ccc(N[C@H](C[S+]([O-])c2ccc(C)cc2)c2ccc(F)cc2)cc1` (stereo partly drawn), the GI50 in the assay on M14 is 64.3 µM (inactive); with RXF 393, 48.4 µM (inactive); with SF-539, 22.3 µM (inactive); with SF-295, 41.8 µM (inactive); with ACHN, 52.6 µM (inactive); with COLO 205, > 100 µM (inactive). Besides, the GI50 with HCC 2998 was > 100 µM (inactive); with A549, 43 µM (inactive); in the assay with MDA-MB-435 it was > 100 µM (inactive); with NCI-H23, 13.2 µM (inactive); in the assay with HT-29, > 100 µM (inactive); in the assay with HCT-15, 27.5 µM. The GI50 is 82.4 µM (inactive) with PC-3; 26.9 µM (inactive) in the assay with NCI/ADR-RES; 12.9 µM (inactive) in the assay on SK-MEL-5; > 100 µM (inactive) in the assay with EKVX; > 100 µM (inactive) in the assay with SW-620; > 100 µM (inactive) in the assay with K562.

For the compound `O=C(/C=C/c1ccsc1)c1cccs1`, the GI50 was 22.8 µM (inactive) in the assay on M14; 18.9 µM (inactive) in the assay on RXF 393; 32.9 µM (inactive) in the assay with SF-539; 64.7 µM (inactive) in the assay with SF-295; 52.1 µM (inactive) in the assay with ACHN; 34.1 µM (inactive) in the assay on COLO 205. Also, the GI50 with HCC 2998 was 19.7 µM (inactive); in the assay on A549, 33 µM (inactive); in the assay on MDA-MB-435, > 10 µM (inactive); in the assay on NCI-H23, 22.5 µM (inactive); in the assay with HT-29, 36.9 µM (inactive); with HCT-15, 18.7 µM. The GI50 in the assay with PC-3 was 69.5 µM (inactive); with NCI/ADR-RES it was 20.7 µM (inactive); in the assay with SK-MEL-5 it was 14.6 µM (inactive); in the assay on EKVX, 41.3 µM (inactive); in the assay with SW-620, 17.3 µM (inactive); in the assay on K562, 28.2 µM (inactive).
